Data taken from patent publication US20050009005A1, “Methods of using quantitative lipid metabolome data” (Lipomics Technologies, Inc., priority 2001, published 2005).
Where two headings read alike, the source gives them in different places.

Tested on: de novo fatty acid synthesis
[1] = Adipose, CE, mean of treated mice
[2] = Adipose, FFA, mean of treated mice
[3] = Adipose, PL, mean of treated mice
[4] = Adipose, TAG, mean of treated mice
[5] = Heart, CE, mean of treated mice
[6] = Heart, FFA, mean of treated mice
[7] = Heart, PC, mean of treated mice
[8] = Heart, PS/I, mean of treated mice
[9] = Heart, TAG, mean of treated mice
[10] = Liver, CE, mean of treated mice

## CN(CCOc1ccc(CC2SC(=O)NC2=O)cc1)c1ccccn1 (centres unmarked) [rosiglitazone]
Adipose, CE, mean
  14:0: 3.8 percentage of total fatty acids within each lipid class
  16:0: 10.9 percentage of total fatty acids within each lipid class
  16:1n7: 7.1 percentage of total fatty acids within each lipid class
  18:0: 3.8 percentage of total fatty acids within each lipid class
  18:1n7: 1.3 percentage of total fatty acids within each lipid class
  18:1n9: 31.8 percentage of total fatty acids within each lipid class
  Saturates: 24.3 percentage of total fatty acids within each lipid class
  Total: 100.0 percentage of total fatty acids within each lipid class
  Total n7: 8.4 percentage of total fatty acids within each lipid class
  Total n9: 33.7 percentage of total fatty acids within each lipid class
[1]
  14:0: 131.5 nanomoles per gram
  16:0: 361.1 nanomoles per gram
  16:1n7: 248.8 nanomoles per gram
  18:0: 128.3 nanomoles per gram
  18:1n7: 44.3 nanomoles per gram
  18:1n9: 1135.7 nanomoles per gram
  Saturates: 833.5 nanomoles per gram
  Total n7: 293.1 nanomoles per gram
  Total n9: 1202.9 nanomoles per gram
  Total nMole of: 3405.8 nanomoles per gram
Adipose, FFA, mean
  14:0: 3.0 percentage of total fatty acids within each lipid class
  16:0: 16.7 percentage of total fatty acids within each lipid class
  16:1n7: 8.0 percentage of total fatty acids within each lipid class
  18:0: 3.6 percentage of total fatty acids within each lipid class
  18:1n7: 3.4 percentage of total fatty acids within each lipid class
  18:1n9: 30.4 percentage of total fatty acids within each lipid class
  Saturates: 23.9 percentage of total fatty acids within each lipid class
  Total: 100.0 percentage of total fatty acids within each lipid class
  Total n9: 30.8 percentage of total fatty acids within each lipid class
[2]
  14:0: 391.9 nanomoles per gram
  16:0: 2241.1 nanomoles per gram
  16:1n7: 1073.7 nanomoles per gram
  18:0: 487.0 nanomoles per gram
  18:1n7: 461.5 nanomoles per gram
  18:1n9: 4055.1 nanomoles per gram
  Saturates: 3203.6 nanomoles per gram
  Total n7: 1535.2 nanomoles per gram
  Total n9: 4117.3 nanomoles per gram
  Total nMole of: 13373.4 nanomoles per gram
Adipose, PL, mean
  14:0: 1.6 percentage of total fatty acids within each lipid class
  16:0: 18.8 percentage of total fatty acids within each lipid class
  16:1n7: 3.6 percentage of total fatty acids within each lipid class
  18:0: 13.7 percentage of total fatty acids within each lipid class
  18:1n7: 2.8 percentage of total fatty acids within each lipid class
  18:1n9: 18.0 percentage of total fatty acids within each lipid class
  Saturates: 36.3 percentage of total fatty acids within each lipid class
  Total: 100.0 percentage of total fatty acids within each lipid class
  Total n7: 6.5 percentage of total fatty acids within each lipid class
  Total n9: 19.2 percentage of total fatty acids within each lipid class
[3]
  14:0: 152.1 nanomoles per gram
  16:0: 1706.0 nanomoles per gram
  16:1n7: 338.8 nanomoles per gram
  18:0: 1240.0 nanomoles per gram
  18:1n7: 261.8 nanomoles per gram
  18:1n9: 1679.9 nanomoles per gram
  Saturates: 3281.6 nanomoles per gram
  Total n7: 600.6 nanomoles per gram
  Total n9: 1787.7 nanomoles per gram
  Total nMole of: 4559.5 nanomoles per gram
Adipose, TAG, mean
  14:0: 1.8 percentage of total fatty acids within each lipid class
  16:0: 22.5 percentage of total fatty acids within each lipid class
  16:1n7: 7.3 percentage of total fatty acids within each lipid class
  18:0: 1.5 percentage of total fatty acids within each lipid class
  18:1n7: 3.2 percentage of total fatty acids within each lipid class
  18:1n9: 30.5 percentage of total fatty acids within each lipid class
  Saturates: 26.2 percentage of total fatty acids within each lipid class
  Total: 100.0 percentage of total fatty acids within each lipid class
  Total n7: 10.5 percentage of total fatty acids within each lipid class
  Total n9: 30.8 percentage of total fatty acids within each lipid class
[4]
  14:0: 52712.2 nanomoles per gram
  16:0: 650079.8 nanomoles per gram
  16:1n7: 210006.6 nanomoles per gram
  18:0: 43888.4 nanomoles per gram
  18:1n7: 93310.6 nanomoles per gram
  18:1n9: 880178.1 nanomoles per gram
  Saturates: 755758.5 nanomoles per gram
  Total n7: 303317.2 nanomoles per gram
  Total n9: 891269.3 nanomoles per gram
  Total nMole of: 962282.9 nanomoles per gram
Heart, CE, mean
  14:0: 4.3 percentage of total fatty acids within each lipid class
  16:0: 14.6 percentage of total fatty acids within each lipid class
  16:1n7: 3.4 percentage of total fatty acids within each lipid class
  18:0: 6.4 percentage of total fatty acids within each lipid class
  18:1n7: 1.3 percentage of total fatty acids within each lipid class
  18:1n9: 25.5 percentage of total fatty acids within each lipid class
[5]
  14:0: 56.4 nanomoles per gram
  16:0: 198.8 nanomoles per gram
  16:1n7: 45.4 nanomoles per gram
  18:0: 89.0 nanomoles per gram
  18:1n7: 19.3 nanomoles per gram
  18:1n9: 370.9 nanomoles per gram
  Saturates: 379.2 nanomoles per gram
  Total n7: 64.8 nanomoles per gram
  Total n9: 383.4 nanomoles per gram
  Total nMole of: 1358.5 nanomoles per gram
Heart, CL, mean
  14:0: 0.2 percentage of total fatty acids within each lipid class
  16:0: 1.3 percentage of total fatty acids within each lipid class
  16:1n7: 2.0 percentage of total fatty acids within each lipid class
  18:0: 2.4 percentage of total fatty acids within each lipid class
  18:1n7: 3.0 percentage of total fatty acids within each lipid class
  18:1n9: 5.0 percentage of total fatty acids within each lipid class
  Saturates: 4.1 percentage of total fatty acids within each lipid class
  Total: 100.0 percentage of total fatty acids within each lipid class
  Total n7: 5.1 percentage of total fatty acids within each lipid class
  Total n9: 5.3 percentage of total fatty acids within each lipid class
Heart, FFA, mean
  14:0: 2.1 percentage of total fatty acids within each lipid class
  16:0: 22.6 percentage of total fatty acids within each lipid class
  16:1n7: 3.0 percentage of total fatty acids within each lipid class
  18:0: 8.3 percentage of total fatty acids within each lipid class
  18:1n7: 3.6 percentage of total fatty acids within each lipid class
  18:1n9: 18.7 percentage of total fatty acids within each lipid class
  Saturates: 33.8 percentage of total fatty acids within each lipid class
  Total: 100.0 percentage of total fatty acids within each lipid class
  Total n7: 6.6 percentage of total fatty acids within each lipid class
  Total n9: 19.4 percentage of total fatty acids within each lipid class
[6]
  14:0: 52.4 nanomoles per gram
  16:0: 560.7 nanomoles per gram
  16:1n7: 73.6 nanomoles per gram
  18:0: 206.9 nanomoles per gram
  18:1n7: 90.0 nanomoles per gram
  18:1n9: 466.4 nanomoles per gram
  Saturates: 839.0 nanomoles per gram
  Total n7: 163.6 nanomoles per gram
  Total n9: 483.8 nanomoles per gram
  Total nMole of: 2482.9 nanomoles per gram
Heart, PC, mean
  14:0: 0.2 percentage of total fatty acids within each lipid class
  16:0: 29.2 percentage of total fatty acids within each lipid class
  16:1n7: 1.0 percentage of total fatty acids within each lipid class
  18:0: 11.6 percentage of total fatty acids within each lipid class
  18:1n7: 4.0 percentage of total fatty acids within each lipid class
  18:1n9: 10.7 percentage of total fatty acids within each lipid class
  Saturates: 41.4 percentage of total fatty acids within each lipid class
  Total: 100.0 percentage of total fatty acids within each lipid class
  Total n7: 5.0 percentage of total fatty acids within each lipid class
  Total n9: 10.9 percentage of total fatty acids within each lipid class
[7]
  14:0: 68.3 nanomoles per gram
  16:0: 8497.6 nanomoles per gram
  16:1n7: 289.1 nanomoles per gram
  18:0: 3392.4 nanomoles per gram
  18:1n7: 1154.7 nanomoles per gram
  18:1n9: 3120.1 nanomoles per gram
  Saturates: 12059.6 nanomoles per gram
  Total n7: 1443.8 nanomoles per gram
  Total n9: 3184.2 nanomoles per gram
  Total nMole of: 14579.5 nanomoles per gram
Heart, PS/I, mean
  14:0: 0.3 percentage of total fatty acids within each lipid class
  16:0: 5.2 percentage of total fatty acids within each lipid class
  16:1n7: 0.4 percentage of total fatty acids within each lipid class
  18:0: 33.6 percentage of total fatty acids within each lipid class
  18:1n7: 1.4 percentage of total fatty acids within each lipid class
  18:1n9: 5.1 percentage of total fatty acids within each lipid class
  Saturates: 39.7 percentage of total fatty acids within each lipid class
  Total: 100.0 percentage of total fatty acids within each lipid class
  Total n7: 1.8 percentage of total fatty acids within each lipid class
  Total n9: 5.8 percentage of total fatty acids within each lipid class
[8]
  14:0: 25.3 nanomoles per gram
  16:0: 515.0 nanomoles per gram
  16:1n7: 36.4 nanomoles per gram
  18:0: 3334.5 nanomoles per gram
  18:1n7: 143.9 nanomoles per gram
  18:1n9: 504.6 nanomoles per gram
  Saturates: 3945.4 nanomoles per gram
  Total n7: 180.2 nanomoles per gram
  Total n9: 572.9 nanomoles per gram
  Total nMole of: 4967.1 nanomoles per gram
Heart, TAG, mean
  14:0: 3.0 percentage of total fatty acids within each lipid class
  16:0: 26.0 percentage of total fatty acids within each lipid class
  16:1n7: 4.9 percentage of total fatty acids within each lipid class
  18:0: 3.5 percentage of total fatty acids within each lipid class
  18:1n7: 3.2 percentage of total fatty acids within each lipid class
  18:1n9: 26.2 percentage of total fatty acids within each lipid class
[9]
  14:0: 160.8 nanomoles per gram
  16:0: 1597.3 nanomoles per gram
  16:1n7: 316.4 nanomoles per gram
  18:0: 173.5 nanomoles per gram
  18:1n7: 210.7 nanomoles per gram
  18:1n9: 1775.7 nanomoles per gram
  Saturates: 1993.9 nanomoles per gram
  Total n7: 527.1 nanomoles per gram
  Total n9: 1813.1 nanomoles per gram
  Total nMole of: 2014.7 nanomoles per gram
Liver, CE, mean
  14:0: 1.9 percentage of total fatty acids within each lipid class
  16:0: 48.0 percentage of total fatty acids within each lipid class
  16:1n7: 11.8 percentage of total fatty acids within each lipid class
  18:0: 3.5 percentage of total fatty acids within each lipid class
  18:1n7: 2.3 percentage of total fatty acids within each lipid class
  18:1n9: 19.9 percentage of total fatty acids within each lipid class
  Saturates: 54.6 percentage of total fatty acids within each lipid class
  Total: 100.0 percentage of total fatty acids within each lipid class
  Total n7: 14.1 percentage of total fatty acids within each lipid class
  Total n9: 20.5 percentage of total fatty acids within each lipid class
[10]
  14:0: 110.6 nanomoles per gram
  16:0: 2765.2 nanomoles per gram
  16:1n7: 678.5 nanomoles per gram
